Read-outs that look alike come from different tables or passages of the source.
Assays:
[1] = parameters: species or system male Sprague Dawley rats; conditions: rat, in vivo, 0.25 mg/kg, 300 min
Excerpt: (§1) Two animal species were used, i.e., rats and rabbits.
(§2) Monosialotetrahexosylganglioside GM1 labeled on the sphingosine moiety according to the method of Tettamanti et al. (in "Gangliosides in Neurological and Neuromuscular Function, Development and Repair" Eds. M. M. Rapport, A. Gorio, Raven Press. (N.Y.) 1981, p. 225-240) was used as a representative ganglioside molecule.
(§3) The ganglioside mixture used was similar to the natural mixture that is obtained by extraction and purification from bovine cerebral cortex. The mixture was made up by compounding the single ganglioside fractions in the following percent proportions:
(§4) The monosialotetrahexosylganglioside GM1 contained a ^3 H-label on sphingosine as specified under item (a) as a tracer for the mixture.
(§5) Labeled inner ester derivative of monosialoganglioside was obtained from monosialoganglioside labeled on the sphingosine moiety according to the method cited under item (a). The inner esterification procedure according to the method described in applicant's co-pending U.S. application Ser. No. 290,106, filed on Aug. 4, 1981, was used for this labeled ganglioside to obtain the labeled inner ester derivative. […]
(§6) After treatment the animals were housed in metabolic cages. […] The total radioactivity of the samples was counted by means of a Tricarb scintillator (Packard). […]

[2] = parameters: species or system male New Zealand rabbits; conditions: rabbit, in vivo, 0.25 mg/kg, 300 min
Excerpt: as §1, §2, §3, §4, §5, §6

[3] = parameters: species or system male Sprague Dawley rats; conditions: rat, in vivo, 0.25 mg/kg, 300 min; remark: listed apart in the source
Excerpt: as §1, §2, §3, §4
as §5, with “Aug.” for “Aug. 4, 1981, was used for this labeled ganglioside to obtain the labeled inner ester derivative.”
After treatment the animals were housed in metabolic cages. […] The total radioactivity of the samples was counted by means of a Tricarb scintillator (Packard).
(§7) However, increased pulmonary absorption of the compounds after nebulization of the aqueous solutions was recorded (See Table 2).

[4] = parameters: species or system male New Zealand rabbits; conditions: rabbit, in vivo, 0.25 mg/kg, 300 min; remark: listed apart in the source
Excerpt: as §1, §2, §3, §4
as §5, with “Aug.” for “Aug. 4, 1981, was used for this labeled ganglioside to obtain the labeled inner ester derivative.”
as §6, §7

[5] = parameters: species or system male Sprague Dawley rats; conditions: rat, in vivo, 0.25 mg/kg, 300 min; remark: listed apart in the source
Excerpt: as §1, §2, §3, §4, §5, §6

[6] = parameters: species or system male New Zealand rabbits; conditions: rabbit, in vivo, 0.25 mg/kg, 300 min; remark: listed apart in the source
Excerpt: as §1, §2, §3, §4, §5, §6

| Molecule | Bioavailability (Intramuscular route = 100) [1] [%] | Bioavailability (Intramuscular route = 100) [2] [%] | Bioavailability (Intramuscular route = 100) [3] [%] | Bioavailability (Intramuscular route = 100) [4] [%] | Bioavailability (Intramuscular route = 100) [5] | Bioavailability (Intramuscular route = 100) [6] |
| --- | --- | --- | --- | --- | --- | --- |
| CCCCCCCCCCCCC/C=C/[C@@H](O)[C@H](CO[C@@H]1O[C@H](CO)[C@@H](O[C@@H]2O[C@H](CO)[C@H](O[C@@H]3O[C@H](CO)[C@H](O)[C@H](O[C@@H]4O[C@H](CO)[C@H](O)[C@H](O)[C@H]4O)[C@H]3NC(C)=O)[C@@H]3O[C@@]4(C[C@H](O)[C@@H](NC(C)=O)[C@H]([C@H](O)[C@H](O)CO)O4)C(=O)O[C@@H]23)[C@H](O)[C@H]1O)NC(=O)CCCCCCCCCCCCCCCCC [Monosialoganglioside inner ester] | 12 | 11.5 | 35 | 33.5 | 80 | 85 |
| Monosialotetrahexosylganglioside GM1 [Monosialoganglioside] | 10.5 | 12 | 34 | 32 | 85 | 87 |
